This data set addresses T1, OATP-C protein (Homo sapiens, UniProt Q9Y6L6).
T1 sequence (Q9Y6L6 1-691): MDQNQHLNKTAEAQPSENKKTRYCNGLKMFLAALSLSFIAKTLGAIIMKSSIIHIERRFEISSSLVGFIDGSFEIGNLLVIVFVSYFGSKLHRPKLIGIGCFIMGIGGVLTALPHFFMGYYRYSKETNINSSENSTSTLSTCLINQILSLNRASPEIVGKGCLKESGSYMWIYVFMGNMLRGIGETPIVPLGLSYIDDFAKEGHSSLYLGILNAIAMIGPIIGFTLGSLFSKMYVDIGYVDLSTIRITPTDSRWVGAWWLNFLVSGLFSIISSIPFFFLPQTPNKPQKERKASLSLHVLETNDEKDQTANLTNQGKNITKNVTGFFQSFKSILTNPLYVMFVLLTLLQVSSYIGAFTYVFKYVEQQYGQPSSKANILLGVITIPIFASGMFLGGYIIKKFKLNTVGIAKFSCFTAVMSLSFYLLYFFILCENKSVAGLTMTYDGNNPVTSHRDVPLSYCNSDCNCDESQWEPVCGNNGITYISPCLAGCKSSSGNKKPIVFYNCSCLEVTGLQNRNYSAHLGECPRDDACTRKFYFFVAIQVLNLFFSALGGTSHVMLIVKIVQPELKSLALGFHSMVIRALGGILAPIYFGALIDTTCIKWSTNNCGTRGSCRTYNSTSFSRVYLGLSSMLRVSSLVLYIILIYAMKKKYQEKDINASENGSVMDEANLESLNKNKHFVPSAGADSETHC
Briefly: Transport experiment: uptake of labeled substrates into HEK293 cells transfected with OATP-C. The protocol:
The human fetal kidney-derived cell strain, HEK 293 cells, were transfected with the plasmid pcDNA3/OATP-C or the pcDNA3 vector containing no insert as a control (mock) by the calcium phosphate method. Specifically, the plasmid DNA (10 μg), a Hepes buffer solution (137 mM NaCl 5 mM KCl, 0.7 mM Na2HPO4, 6 mM dextrose, and 21 mM Hepes pH 7.1) (1 ml), and 2 M CaCl2 (62.5 μl) were mixed and the resultant mixture was allowed to stand at room temperature for 30 min or more to form calcium phosphate coprecipitates. After the cells were plated on 10-cm diameter plates at a concentration of 1.5×10^6 cells per plate, and the cells were cultured for 24 h. The above-described calcium phosphate coprecipitates were added thereto, and the cells were further cultured for 24 h. Then, plates were washed with phosphate buffered saline (PBS), and after the addition of fresh culture medium, the cells were further cultured for 24 h.
Transport experiment was performed using the cells transfected with the plasmid DNA according to the following procedures. The cells were detached from the plates using a rubber policeman, suspended in a transport buffer (containing 125 mM NaCl, 4.8 mM KCl, 5.6 mM (+)-glucose, 1.2 mM CaCl2, 1.2 mM KH2PO4, 1.2 mM MgSO4, and 25 mM Hepes pH 7.4), and pre-incubated for 20 min. […] Incubated cells were overlaid on a silicon layer formed by laying a mixture of silicon oil and liquid paraffin (specific gravity=1.022) on a 3 M KCl layer, and separated by centrifugation. Radioactivity of cells was measured to determine the into-the-cell transport activity. In this case, 1×10^6 cells were used as one point of cells.
Herein, the culture of HEK 293 cells was performed using Dulbecco's MEM containing 10% FCS (fetal calf serum) as the culture medium in an atmosphere of 5% carbon dioxide at 37° C.

[1] abbreviates: HEK293 cells expressing OATP-C vs mock, labeled substrate, 37° C. (FIG. 3).

Read-outs that look alike come from different tables or passages of the source.

With `C[C@]12CC[C@@H]3c4ccc(OS(=O)(=O)O)cc4CC[C@H]3[C@@H]1CCC2=O` [estron-3-sulfate], the into-the-cell transport activity entry under setting [1] was “transport was obviously observed”.

On to `C[C@@H]1O[C@@H](O[C@H]2C[C@@H](O)[C@]3(CO)[C@H]4[C@H](O)C[C@]5(C)[C@@H](C6=CC(=O)OC6)CC[C@]5(O)[C@@H]4CC[C@]3(O)C2)[C@H](O)[C@H](O)[C@H]1O` [ouabain], for which, under setting [1], the into-the-cell transport activity entry was “weak transport activity”.

Turning to `C[C@]12CC[C@@H]3c4ccc(O)cc4CC[C@H]3[C@@H]1CC[C@@H]2O[C@@H]1O[C@H](C(=O)O)[C@@H](O)[C@H](O)[C@H]1O` [estradiol-17β-glucuronide], the into-the-cell transport activity entry under setting [1] was “transport was obviously observed”. For the same compound, the “alteration of transport mediated by OATP-C protein” value is “No alteration” (chloride ion substituted with gluconate (FIG. 6)) and “No alteration” (sodium ion replaced with N-methylglucamine (FIG. 6)).

Consider `CN(Cc1cnc2nc(N)nc(N)c2n1)c1ccc(C(=O)N[C@@H](CCC(=O)O)C(=O)O)cc1` [methotrexate], for which the into-the-cell transport activity result is on record as “weak transport activity”. For the compound `CCCCC[C@H](O)/C=C/[C@H]1[C@H](O)CC(=O)[C@@H]1C/C=C\CCCC(=O)O` [prostaglandin E2], the into-the-cell transport activity entry under setting [1] is “weak transport activity”.

The values above are taken from patent US7045316B2, “Transporter genes OATP-B,C,D, and E” (Chugai Seiyaku Kabushiki Kaisha, priority 1999, dated 2006).
